Experimental data taken from patent publication US11198900B2, “Nucleic acid-based linkers for detecting and measuring interactions” (Children's Medical Center Corporation, priority 2014, dated 2021).

Legend:
[1] = target: T1, streptavidin (Streptomyces avidinii, UniProt P22629); assay: DNA nanoswitch gel electrophoresis, desthiobiotin-streptavidin off-rate; format: binding
T1 construct: purchased Rockland
Protocol: Desthiobiotin experiments were conducted in a similar manner as the biotin experiments with slight modifications. […] The off-rate of the desthiobiotin interaction is much faster than the typical 100 minute gel run time. Noting that once a loop opens in the gel, the reptation of the DNA prevents the loop from closing again, we ran samples for different amounts of time in the gel at 15 V/cm and 4° C., and quantified the fraction looped as a function of running time. In addition to allowing the determination of the desthiobiotin-streptavidin off rate, this gel also allowed us to determine the minimum amount of time required to achieve separation of the looped and unlooped bands in the gel. This enabled the use of the standard quenching technique for measuring desthiobiotin off-rates as described in the previous section; these gels were run at 15 V/cm for 10 minutes in pre-chilled electrophoresis buffer.

[2] = test system: disulfide bond (var 4-S-S-var 8); assay: DNA nanoswitch disulfide bond reduction; settings: 10 μM TCEP, room temperature (25° C.)
Protocol: This construct was created in 3 steps. 1) Var 4 and a truncated version of var 8 with a 3′ and a 5′ thiol respectively, were reduced in 50 mM TCEP (BondBreaker Thermo Scientific). 2) These two oligonucleotides were linked by a disulfide. 3) The disulfide-bridged oligonucleotides were hybridized onto the DNA nanoswitch. • 1) To reduce the thiols on the oligonucleotides they were incubated in 50 mM TCEP for 1 hour at RT. • 2) Equal volumes of the two oligonucleotide-TCEP mixtures were then combined. The TCEP was removed using a QIAGEN nucleotide-removal kit. The oligonucleotides were then allowed to form disulfides in the absence of reducing agent in PBS for 1 hour before running the products on a precast 4-20% gradient polyacrylamide TBE gel. As the oligonucleotides were different sizes (60 and 30 nt) the appropriate hetero dimer could be easily identified and purified using electroelution as previously described^5. • 3) The var 4-S-S-var 8 was used instead of the normal var 4 and var 8. This was annealed onto the linear M13 backbone at a 1:1 ratio and was added along with the other oligonucleotides at the beginning of the annealing. This yielded loops with a disulfide bridging variable regions 4 and 8.
With these loops in hand we could observe loop opening as a result of TCEP reduction of the disulfide bond. […]

[3] = target: T1, streptavidin; assay: DNA nanoswitch gel electrophoresis, biotin-streptavidin kinetics (Example 2, FIG. 7 and 8); format: binding; settings: for dissociation time: 150 mM physiological salt
Description: FIG. 7. […] (A) The DNA nanoswitch has two distinct states, depending on the binding of a receptor-ligand pair, that can be distinguished by gel electrophoresis, (B) In the presence of excess ligand, a nanoswitch in the bound state will become trapped in the unbound state upon dissociation. […] The amount of looped construct is quantified from the gel to determine the kinetics of dissociation.
FIG. 7D, for example, illustrates the formation of looped constructs having two biotins in the presence of streptavidin (t=0).
Linkers were designed according to protocols for long (2580 bp) and short (600 bp) loops as described herein. […] All other oligos were the same as those used previously. Briefly, looped constructs were made by mixing a long single-stranded DNA (M13mp18, in this case) with over 121 oligos that are complementary along its length. […] The constructs come together by self-assembly with a temperature ramp heating and cooling them.
Recognizing that the nanoswitch conformation informs the receptor-ligand binding state (bound or unbound), and that the conformation can be observed on a gel, an assay to measure bulk interaction kinetics was developed. The assay, conceptually shown in FIG. 7, proceeds as follows: 1) form a looped nucleic acid (DNA) construct that relies on a receptor and a ligand being bound to each other, 2) quench the interaction between the receptor and the ligand, for example, with excess receptor or ligand to prevent rebinding following dissociation, 3) monitor the relative amount of looped construct over time to measure kinetics.
Linear double-stranded DNA constructs 7249 base pairs (bp) in length were self-assembled by combining the single-stranded M13 bacteriophage genome with 121 complementary oligos. (See also Halvorsen K et al., 2011.). Two of the oligos were labeled with single biotins and placed 2580 bp from each other, such that interaction with streptavidin induced the formation of a 2580 bp loop in the structure. […] The entire array of 16 conditions with five time points each plus controls was then run on a single 96 lane agarose gel (FIG. 8).
The gel analysis tool in ImageJ was used to measure the integrated intensity of the band containing looped construct, and this quantity was normalized by the integrated intensity of a reference band in the same lane from a DNA ladder, which was added to the construct prior to starting experiments. Individual time constants for each experimental condition were determined by fitting a single exponential decay to the data using an error weighted least squares fitting.

[4] = target: T1, streptavidin; assay: DNA nanoswitch gel electrophoresis, biotin-streptavidin on-rate and off-rate (Example 3); format: binding
Protocol: This construct used biotinylated versions of two oligonucleotides (var 4 and var 8), which were used in 4× molar excess to the scaffold, while all other oligonucleotides were used in a 10× molar excess. […] The final DNA construct was then diluted 100× from its original concentration of ˜16 nM (to 160 pM), and mixed in equal volumes with streptavidin (Rockland) at 6 nM nominal concentration to form the loops, yielding final nominal concentrations of ˜80 pM and 3 nM, respectively.
The 25° C. experiment was performed at room temperature, the 4° C. experiment was performed in a cold room, and the 37° C. and 50° C. experiments were performed using a thermal cycler. […] Actual concentrations used to determine the on-rates were measured using spectrophotometry and a HABA assay to determine streptavidin activity.
Off-rate measurements were performed by forming looped construct as described above, and letting the solution sit for at least 24 hours to allow the system to reach equilibrium. […] The 4° C. condition was done in a refrigerator, the 25° C. sample was done in a water bath, and the 37° C. and 50° C. temperatures were done in a thermal cycler. To run all the samples on a single gel, the quenching times were determined relative to the predetermined gel running time.
The amount of material in each gel band was quantified by analyzing the scanned gel images with the gel analysis tool in the freely available ImageJ software package. Using rectangular regions of interest that just capture the width of the gel bands, this toolbox produces intensity profiles whose area can be measured to quantify the total brightness in each band. We applied the same rectangular window size to each lane within a single gel. In many gels the highest molecular weight band of the added ladder was used as a normalizing reference lane. This relaxed the constraints of pipetting perfectly across all lanes. • 2) All multistate (with 5 bands) gels were analyzed as follows
Error bars were produced based on this analysis, and all fitting procedures used an error weighted least squares fit.
The time evolution of DNA nanoswitch states are modeled using multistep reaction kinetics. On rates are modeled as a two-step process: Unbound Linear→Singly Bound Linear→Looped
Step 1 represents the binding of a free receptor in solution to a ligand on the scaffold (yielding the solution on-rate), Step 2 represents the subsequent binding of this receptor to another ligand on the same scaffold to form a loop (yielding the loop-closure rate).
We additionally used Eyring analysis to fit the temperature dependence of the kinetic rates: […]

[5] = target: Neutravidin (Gallus gallus, UniProt P02701); assay: DNA nanoswitch gel electrophoresis, biotin with avidin and Neutravidin; format: binding; settings: relative to avidin
Chain of Neutravidin (P02701 25-152): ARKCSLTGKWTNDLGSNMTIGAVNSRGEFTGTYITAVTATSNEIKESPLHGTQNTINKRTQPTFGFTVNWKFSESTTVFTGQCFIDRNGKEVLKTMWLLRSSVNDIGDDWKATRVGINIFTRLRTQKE
Protocol: Preparations with avidin and neutravidin were prepared in the same way, but protein concentrations were sometimes altered to enable on-rate measurements over a similar time scale as the streptavidin experiments.

[6] = calculated from on-rate and off-rate

T1 sequence (P22629 25-183): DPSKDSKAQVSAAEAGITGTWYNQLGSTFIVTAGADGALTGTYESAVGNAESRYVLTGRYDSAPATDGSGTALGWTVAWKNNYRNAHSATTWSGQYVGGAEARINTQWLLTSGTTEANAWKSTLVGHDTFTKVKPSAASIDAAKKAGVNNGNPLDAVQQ

For `C[C@@H]1NC(=O)N[C@@H]1CCCCCC(=O)O` [desthiobiotin], which off-rate ([1]; 4° C.) is on record?
The off-rate was 35.3 ± 7.5 min.

And the off-rate ([1]; room temperature)?
Its off-rate is 8.6 ± 1.2 min.

With `O=C(O)CCP(CCC(=O)O)CCC(=O)O` [TCEP] as the molecule, how does the “time constant of disulfide bond reduction” value [2] read?
The value was 2.6±0.4 weeks.

How did the “change of off-rate with salt” value ([3]; 5 mM to 500 mM at a given temperature) turn out when `O=C(O)CCCC[C@@H]1SC[C@@H]2NC(=O)N[C@@H]21` [biotin] was run?
Its value is “less than 2 fold”.

What about the dissociation time ([3]; 25° C.) of the same molecule?
The dissociation time was 148 ± 10 h.

What about the dissociation time ([3]; 37° C.) of the same molecule?
Its dissociation time is 11.2 ± 3 h.

What about the “variation of off-rate with temperature” value ([3]; 4° C. to 50° C. at a given salt concentration) of the same molecule?
Its value is “over 100 fold”.

What about the “off-rates as fast as” value ([3]; high temperature) of the same molecule?
Its value is 40 min.

What about the on-rate ([4]; 150 mM salt, room temperature) of the same molecule?
The on-rate was 4.0±0.7×10^6 M^−1s^−1.

And the “variation of dissociation kinetics over temperature range” value ([4]; 4-50° C.)?
Its value is ~1,000 fold.

And the “variation of dissociation kinetics over salt range” value ([4]; 25-500 mM)?
Its value is “about 2 fold”.

What about the “equilibrium enthalpy change, ΔH” value [4, 6] of the same molecule?
Its value is 26.01 ± 0.05 kcal/mol.

What about the “equilibrium free energy change, ΔG^0” value [4, 6] of the same molecule?
Its value is -17.1 ± 0.1 kcal/mol.

And the dissociation time ([4]; physiological salt conditions, 25° C.)?
The dissociation time was 9.7 ± 0.4 days.

What about the “affinity of Neutravidin for biotin, weaker than avidin's” value [5] of the same molecule?
Its value is 20 times.
